Assay results as given in patent US10858357B2, “Water-soluble myosin 2 inhibitors for the treatment of neurological, neuropathic or psychiatric diseases” (PARIS SCIENCES ET LETTRES-QUARTIER LATIN, priority 2016, dated 2020).
≈ marks a conversion by molar mass, not a printed value. Where two headings read alike, the source gives them in different places.

Legend:
[1] = system: zebrafish skeletal muscle; experiment: Zebrafish fast escape response (C-start), maximal angular velocity; format: in vivo, zebrafish (Danio rerio); details: 6 dpf zebrafish
Procedure: For the fast escape response experiments, 6 dpf larvae were placed in 50 μl drops on a plastic plate. They were treated with 0, 2, 5, 10 or 20 μM of neurelaxin-A. To evoke C-start response, acoustic stimuli were applied according to the following protocol: 10 taps were carried out with 1 minute intervals every hour for 4 hours. The force of tapping was standardized. Images were recorded with Ximea Camera (MQ003MG-CM) at 500 fps for 2 s. Data were analyzed by Flote software version 2.1 and maximal angular velocity parameters of C-start reflex were quantified. For the experiments investigating the effect of the inhibitor on the heart muscle of zebrafish, 6 dpf larvae were embedded in 1% agarose and kept in E3 in the presence of 20 μM neurelaxin-A. Videos were taken by a camera at 15.1 fps before and after inhibitor treatment every hour for 3 hours.
Transgenic Tg(−8.0cldnb:lynEGFP)^zf106 (cldnb:gfp) (Haas, P. & Gilmour, D., Developmental Cell 10, 2006, pp 673-680) zebrafish (Danio rerio) were maintained in the animal facility of Eötvös Loránd University. […]
The relative rate of in vivo skeletal muscle contraction was quantified based on the velocity of the rotating heads of the animals have been quantified (maximal angular velocity) in the absence and in the presence of neurelaxin-A (2 μM), monitored for 4 hours.

[2] = system: HeLa Kyoto H2B-mCherry eGFP-α-tubulin cells; experiment: Inhibition of cytokinesis / cell growth of HeLa cells; format: cell-based, human; details: 25 μM, 3rd day
Procedure: For cell growth assays, HeLa Kyoto H2B-mCherry eGFP-α-tubulin cells were grown on an eight-chambered Lab-Tek borosilicate cover glass system, with the initial cell concentration of 100,000 cells/ml. As soon as the cells attached to the surface, they were treated with 0, 2, 5, 10, 25 or 50 μM concentrations of neurelaxin-A. Cells were grown for three days in the presence of the indicated inhibitor concentrations and cell numbers were quantified each day. The final vol/vol % of DMSO in all experiments was 0.1. Data analysis was carried out by Fiji software. On the third day of the experiment, multinuclear cells were visualized by using a Zeiss LSM 710 with a Plan Apo 20×/0.8 objective.
Another important phenotypic effect of non-muscle myosin 2 inhibition is the blocking of cytokinesis and consequently, the increasing number of multinucleated cells and the relatively low total cell number in human cancer cell cultures (Straight et al. Science, 2003, 299 (5613), pp 1743-1747). Therefore, the ratio of multinuclear cells and total cell number of HeLa cells was measured in time at different concentrations of neurelaxin-A (FIGS. 3F and 3G).
Cells incubated in different concentrations of the inhibitors were counted on each day for three days. […] In parallel with this phenomenon, the ratio of multinuclear cells increased with increasing inhibitor concentration.

[3] = system: embryonic mouse hippocampal cells; experiment: Neurite growth in embryonic hippocampal cell culture; format: cell-based; details: 50 μM
Procedure: Embryonic mouse hippocampal cells were isolated from 17-day-old embryo and cultured on poly-D-lysine coated dish in neurobasal medium complemented with B27, FCS and glutamax for 20 hours.
The growth of neurites was monitored by phase contrast microscopy after the addition of 50 μM neurelaxin-A (Imaging buffer: Extracell isotonic salt solution, buffered with 5 mM HEPES).

[4] = system: human melanoma (M2) cells; experiment: Inhibition of blebbing of M2 cells (blebbing index); format: cell-based
Procedure: For blebbing index determination, M2 cells were incubated for 30 minutes in PBS in every case prior to the addition of inhibitors, in order to initiate extensive blebbing. Blebbing of the cells was monitored before as well as after inhibitor addition to the cells. DMSO concentration was 0.1 vol/vol % in all experiments. Blebbing index was calculated by summing the initiated blebs in a 5-minute interval (starting at the indicated time points) on a given standard area 17 (whole cells with similar size, diameter=12±1 μm) and normalizing it to the blebbing index prior to inhibitor treatment.
As myosin 2 inhibition blocks blebbing of M2 cells (Straight et al., Science, 2003, 299 (5613), pp 1743-7), the blebbing indices ((Charras, G. T., Yarrow, J. C., Horton, M. A., Mahadevan, L. & Mitchison, T. J. Non-equilibration of hydrostatic pressure in blebbing cells. Nature 435, 365-369, doi:10.1038/nature03550 (2005))) of M2 cells were measured in time, after incubating the cells in neurelaxin-A at different concentrations (FIG. 3C).

[5] = Water solubility and solution stability in assay buffer; format: physicochemical; details: for solution stability at saturation concentration: 0.1 or 1 vol/vol % DMSO in assay buffer; for solubility: pH 7.3, aqueous buffer, kinetic from dmso stock, read-out: saturation concentration (solubility)
Procedure: The solubility and the solution stability of neurelaxin-A, were measured in 0.1 and 1 vol/vol % DMSO at room temperature.
500 μM inhibitor solutions were prepared in assay buffer (40 mM NaCl, 4 mM MgCl2, 20 mM HEPES pH 7.3) containing 0.1 or 1 vol/vol % DMSO.
After 0, 5, 25, 60 and 240 minutes, the samples were centrifuged for 1 minute. Absorption spectra of the supernatants were recorded and the concentrations of the dissolved inhibitors were determined using the extinction coefficient ε^o427=6860 M^−1cm^−1 (FIG. 2A).

Cc1ccc2c(c1)C(=O)C1(O)CCN(c3ccc(N)cc3)C1=N2 (centres unmarked) [Neurelaxin-A, 1-(4-aminophenyl)-3a-hydroxy-6-methyl-3,3a-dihydro-1H-pyrrolo[2,3-b]quinolin-4(2H)-one]
time of half inhibition of maximal angular velocity ([1]; 2 μM): 3.2 h | EC50 ([1]; Danio rerio, C-start, monitored for 4 hours, read-out: EC50 for the inhibition of the maximal angular velocity): < 2 µM | effect on cytokinesis / cell number [2]: completely inhibited cytokinesis | rate of neurite growth [3]: 1 μm/min | rate of neurite growth ([3]; listed as neurelaxin-A): approximately 1 μm/min | τ, time constant of suppression of blebbing index ([4]; 5 μM): 25.0 ± 4.3 min | effect on blebbing indices ([4]; 5 μM, within an hour): significant decrease | time within which blebbing completely stopped ([4]; 10 μM): 40 to 60 min | τ, time constant of suppression of blebbing index ([4]; 10 μM): 16.8 ± 1.6 min | time within which blebbing completely stopped ([4]; 25 μM): > 20 min | τ, time constant of suppression of blebbing index ([4]; 25 μM): 9.9 ± 0.3 min | time within which blebbing completely stopped ([4]; 50 μM): > 20 min | τ, time constant of suppression of blebbing index ([4]; 50 μM): 7.8 ± 0.3 min | solution stability at saturation concentration [5]: remained constant for 4 hours | solution stability at saturation concentration ([5]; listed as neurelaxin-A): stable for several days | solubility ([5]; assay buffer with 0.1 vol/vol % DMSO, 0.1 vol/vol % DMSO in assay buffer pH 7.3, room temperature): ~298 µM (≈ 91.6 µg/mL) | solubility ([5]; assay buffer with 1 vol/vol % DMSO, 1 vol/vol % DMSO in assay buffer pH 7.3, room temperature): ~426 µM (≈ 131 µg/mL)
